Legend:
[1] = biological target: T1, human soluble ENPP1 (Homo sapiens, UniProt P22413); test: ENPP1 activity assay using p-Nitrophenyl-5′-TMP as a substrate; assay type: biochemical
T1 construct: 20 ng of human soluble ENPP1
T1 sequence (P22413 103-925 limits assumed): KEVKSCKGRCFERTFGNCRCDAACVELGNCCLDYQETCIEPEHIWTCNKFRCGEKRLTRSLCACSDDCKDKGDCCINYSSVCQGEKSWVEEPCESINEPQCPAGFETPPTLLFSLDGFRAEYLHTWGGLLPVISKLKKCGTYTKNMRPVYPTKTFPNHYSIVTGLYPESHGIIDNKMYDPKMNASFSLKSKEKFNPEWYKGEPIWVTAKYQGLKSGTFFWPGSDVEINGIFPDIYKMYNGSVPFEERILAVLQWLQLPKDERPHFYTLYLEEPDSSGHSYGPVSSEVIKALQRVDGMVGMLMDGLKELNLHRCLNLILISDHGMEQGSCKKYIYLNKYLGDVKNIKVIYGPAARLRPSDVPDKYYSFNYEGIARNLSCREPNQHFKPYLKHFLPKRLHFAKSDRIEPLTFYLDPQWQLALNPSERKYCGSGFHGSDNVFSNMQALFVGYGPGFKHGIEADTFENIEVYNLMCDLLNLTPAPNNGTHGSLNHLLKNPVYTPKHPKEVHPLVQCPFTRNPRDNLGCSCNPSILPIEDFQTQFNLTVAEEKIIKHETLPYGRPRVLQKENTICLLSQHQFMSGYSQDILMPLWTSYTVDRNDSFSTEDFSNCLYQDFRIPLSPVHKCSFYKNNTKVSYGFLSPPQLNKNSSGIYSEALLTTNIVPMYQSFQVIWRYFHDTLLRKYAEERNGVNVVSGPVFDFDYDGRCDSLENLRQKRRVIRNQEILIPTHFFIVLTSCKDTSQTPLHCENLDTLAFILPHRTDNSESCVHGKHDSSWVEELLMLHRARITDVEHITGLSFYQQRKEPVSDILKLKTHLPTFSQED
Procedure: ENPP1 is a transmembrane glycoprotein that hydrolyzes nucleotides and nucleotide derivatives with the formation of nucleotide-5′-monophosphates. ENPP1 hydrolyzes artificial phosphoric acid ester thymidine 5′monophosphate p-nitrophenyl ester (TMP-pNP) to nucleotide-5′-monophosphate and p-nitrophenol, which is a chromogenic product.
Load into a well with 20 ng of human soluble ENPP1 in 50 μL and incubate at room temperature with 25 μL inhibitor solution (4× Final Concentration) for 30 mins. Then, add 25 μL 2 mM TMP solution (2× Final Concentration) into the well, Incubate at RT for 1 hour.
(§1) The percent inhibition at each compound is calculated as follows: % inhibition=(ODMAX−ODCOMPOUND)/(ODMAX−ODMIN)*100. (MAX: absence of ENPP1 inhibitors control, MIN: blank control.)
The IC50 values for percent inhibition versus compound concentration were determined by fitting the inhibition curves using a four-parameter variable slope model in GraphPad Prism® 8.

[2] = biological target: T1, human soluble ENPP1; test: ENPP1 activity assay using p-Nitrophenyl-5′-AMP as a substrate; assay type: biochemical
Procedure: AMP-pNP can be used as substrate of ENPP-1. Its hydrolysis products were nucleotide-5′-monophosphate and p-nitrophcnol, which is also a chromogenic product. The amount of p-nitrophenol product formed is measured using its absorbance at 405 nm, which is directly proportional to enzyme activity.
Load into a well with […] of human soluble ENPP1 in 50 μL and incubate at room temperature with 25 μL inhibitor solution (4× Final Concentration) for 30 mins prior adding 25 μL 3 mM AMP solution (2× Final Concentration) into the well, Incubate at RT for 1 hour. The amounts of released p-nitrophenolate were measured by reading OD value at 405 nm.
as §1
(§2) The IC50 values for percent inhibition versus compound concentration are determined by fitting the inhibition curves using a four-parameter variable slope model in GraphPad Prism® 8.

[3] = biological target: T2, ENPP-1, MDA-MB-231 cells (Homo sapiens, UniProt P22413); test: cell-based; conditions: for inhibition at 20 µM: MDA-MB-231, read-out: % Inhibition (at 20 μM)
T2 sequence (P22413 1-925): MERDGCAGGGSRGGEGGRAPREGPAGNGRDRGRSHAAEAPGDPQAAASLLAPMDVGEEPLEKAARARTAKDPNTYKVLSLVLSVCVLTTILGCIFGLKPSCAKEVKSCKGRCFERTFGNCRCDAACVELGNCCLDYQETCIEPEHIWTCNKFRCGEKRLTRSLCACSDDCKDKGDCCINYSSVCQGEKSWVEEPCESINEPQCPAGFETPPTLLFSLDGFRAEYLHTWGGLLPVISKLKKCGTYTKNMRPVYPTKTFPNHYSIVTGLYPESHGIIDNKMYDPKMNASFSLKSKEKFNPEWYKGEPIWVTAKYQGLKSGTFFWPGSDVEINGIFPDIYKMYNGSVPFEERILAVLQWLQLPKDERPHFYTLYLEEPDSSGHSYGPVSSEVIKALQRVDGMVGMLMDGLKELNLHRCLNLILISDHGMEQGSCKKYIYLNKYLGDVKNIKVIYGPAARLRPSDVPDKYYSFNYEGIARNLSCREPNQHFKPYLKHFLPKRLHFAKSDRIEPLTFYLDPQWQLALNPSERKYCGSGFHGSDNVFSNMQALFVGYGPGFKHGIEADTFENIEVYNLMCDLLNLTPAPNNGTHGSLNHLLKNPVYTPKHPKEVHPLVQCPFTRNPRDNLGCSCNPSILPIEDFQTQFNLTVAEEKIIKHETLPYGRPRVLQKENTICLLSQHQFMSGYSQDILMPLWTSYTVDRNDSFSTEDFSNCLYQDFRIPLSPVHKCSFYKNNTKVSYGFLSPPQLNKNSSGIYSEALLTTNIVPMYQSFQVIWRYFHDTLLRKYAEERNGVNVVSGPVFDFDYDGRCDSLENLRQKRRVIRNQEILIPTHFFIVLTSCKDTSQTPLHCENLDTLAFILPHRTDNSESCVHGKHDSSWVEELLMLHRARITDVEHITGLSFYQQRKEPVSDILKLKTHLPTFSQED
Procedure: ENPP-1 were mainly expressed on the surface of cell membrane where it hydrolytes 2′3′-cGAMP to generate 5′-GMP and 5′-AMP. ENPP-1 also has the ability to hydrolyzes artificial phosphoric acid ester TMP-pNP to nucleotide-5′-monophosphate and p-nitrophcnol there, which is a chromogenic product.
8 point of different concentrations of each inhibitor were prepared with the final assay concentrations starting at 20 μM. 3× series dilution by DMEM medium without FBS was applied. Prior to adding inhibitors, 75000 cells per well were incubated at 37° C., 5% CO2 in DMEM for 24 hours. After removing the supernatant medium, 50 μL inhibitor solution was added into each well with cultured cells and incubate at 37° C., 5% CO2 for 60 minutes.
as §2

[4] = substrate TMP-pNP, 20 ng human soluble ENPP1, Tris buffer pH 9.5, read-out: TMP-pNP (IC50)

SMILES | IC50 [1] [nM] | IC50 [2] [nM] | IC50 [3] [nM] | inhibition at 20 µM [3] [%] | IC50 [1, 4] [nM]
COc1ccc2c(ncc3ncn(Cc4ccc(S(N)(=O)=O)c(OC)c4)c32)n1 [Compound 64, 2-methoxy-4-((7-methoxy-1H-imidazo[4,5-c][1,8]naphthyridin-1-yl)methyl)benzenesulfonamide] | 2.8 | 8.9 | 4700 | 68 | –
COc1ccc2c(ncc3ncn(Cc4ccc(S(N)(=O)=O)c(OC(F)(F)F)c4)c32)n1 [Compound 66, 4-((7-methoxy-1H-imidazo[4,5-c][1,8]naphthyridin-1-yl)methyl)-2-(trifluoromethoxy)benzenesulfonamide] | 3 | 13 | 3400 | 71 | –
COc1ccc2c(ncc3ncn(Cc4ccc(S(N)(=O)=O)cc4C(F)(F)F)c32)n1 [Compound 67, 4-((7-methoxy-1H-imidazo[4,5-c][1,8]naphthyridin-1-yl)methyl)-3-(trifluoromethyl)benzenesulfonamide] | – | 8.6 | 1300 | 80 | 2.3
COc1ccc2c(ncc3ncn(Cc4ccc(S(N)(=O)=O)cc4Br)c32)n1 [Compound 68, 3-bromo-4-((7-methoxy-1H-imidazo[4,5-c][1,8]naphthyridin-1-yl)methyl)benzenesulfonamide] | – | 1.7 | 610 | 86 | 0.49
COc1ccc2c(ncc3ncn(Cc4ccc(S(N)(=O)=O)cc4C#N)c32)n1 [Compound 69, 3-cyano-4-((7-methoxy-1H-imidazo[4,5-c][1,8]naphthyridin-1-yl)methyl)benzenesulfonamide] | 0.67 | 2.1 | 510 | 79 | –
COc1ccc2c(ncc3nc(C4CCOCC4)n(Cc4ccc(S(N)(=O)=O)cn4)c32)n1 [Compound 75, 6-((7-methoxy-2-(tetrahydro-2H-pyran-4-yl)-1H-imidazo[4,5-c][1,8]naphthyridin-1-yl)methyl)pyridine-3-sulfonamide] | 0.24 | 0.68 | 310 | 81 | –
COc1ccc2c(ncc3nc(C)n(Cc4ccc(S(=O)(=O)NC(C)=O)c(F)c4)c32)n1 [Compound 76, N-((2-fluoro-4-((7-methoxy-2-methyl-1H-imidazo[4,5-c][1,8]naphthyridin-1-yl)methyl)phenyl)sulfonyl)acetamide] | – | 26 | 6900 | 51 | 13
COc1ccc2c(ncc3nc(C)n(Cc4ccc(S(=O)(=O)NC(C)=O)cn4)c32)n1 [Compound 77, N-((6-((7-methoxy-2-methyl-1H-imidazo[4,5-c][1,8]naphthyridin-1-yl)methyl)pyridin-3-yl)sulfonyl)acetamide] | 8.6 | 15 | 4800 | 65 | –
COCc1nc2cnc3nc(OC)ccc3c2n1Cc1ccc(S(N)(=O)=O)c(F)c1 [Compound 79, 2-fluoro-4-((7-methoxy-2-(methoxymethyl)-1H-imidazo[4,5-c][1,8]naphthyridin-1-yl)methyl)benzenesulfonamide] | 2.1 | 9.2 | 1900 | 74 | –
COc1ccc2c(ncc3nc(CS(C)(=O)=O)n(Cc4ccc(S(N)(=O)=O)c(F)c4)c32)n1 [Compound 81, 2-fluoro-4-((7-methoxy-2-((methylsulfonyl)methyl)-1H-imidazo[4,5-c][1,8]naphthyridin-1-yl)methyl)benzenesulfonamide] | 6.9 | 23 | 4900 | 63 | –
COC(=O)Cc1nc2cnc3nc(OC)ccc3c2n1Cc1ccc(S(N)(=O)=O)c(F)c1 [Compound 83, methyl 2-(1-(3-fluoro-4-sulfamoylbenzyl)-7-methoxy-1H-imidazo[4,5-c][1,8]naphthyridin-2-yl)acetate] | 3.2 | 7.7 | 1200 | 83 | –
COc1ccc2c(ncc3nc(CC(N)=O)n(Cc4ccc(S(N)(=O)=O)c(F)c4)c32)n1 [Compound 84, 2-(1-(3-fluoro-4-sulfamoylbenzyl)-7-methoxy-1H-imidazo[4,5-c][1,8]naphthyridin-2-yl)acetamide] | – | 8.4 | 2500 | 76 | 3.5
COc1ccc2c(ncc3nc(C4CNC4)n(Cc4ccc(S(N)(=O)=O)c(F)c4)c32)n1 [Compound 85, 4-((2-(azetidin-3-yl)-7-methoxy-1H-imidazo[4,5-c][1,8]naphthyridin-1-yl)methyl)-2-fluorobenzenesulfonamide] | 2 | 5.2 | 900 | 79 | –
COc1ccc2c(ncc3nc(C4CN(S(C)(=O)=O)C4)n(Cc4ccc(S(N)(=O)=O)c(F)c4)c32)n1 [Compound 86, 2-fluoro-4-((7-methoxy-2-(1-(methylsulfonyl)azetidin-3-yl)-1H-imidazo[4,5-c][1,8]naphthyridin-1-yl)methyl)benzenesulfonamide] | 0.81 | 3.2 | 620 | 80 | –
COc1ccc2c(n1)nc(C)c1ncn(Cc3ccc(S(N)(=O)=O)cn3)c12 [Compound 87, 6-((7-methoxy-4-methyl-1H-imidazo[4,5-c][1,8]naphthyridin-1-yl)methyl)pyridine-3-sulfonamide] | 1.3 | 4 | 360 | 85 | –

Reference: patent US11673889B2, “Substituted imidazo[4,5-c][1,8]naphthyridines as phosphodiesterase inhibitors” (Nanjing Zhengxiang Pharmaceuticals Co., Ltd., priority 2019, dated 2023)
